Laboratory results published in patent US9302999B2, “Substituted triazoles as herbicides” (E. I. DU PONT DE NEMOURS AND COMPANY, priority 2012, dated 2016).

Tests used:
Type in all cases: in vivo
[1] = test system: morningglory (Ipomoea spp.); assay: Test A pre-/postemergence: morningglory; settings: for Morningglory plant response rating: Postemergence; for Plant response rating, Morningglory: Preemergence
Outline: (§1)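 Compounds, formulated with surfactant in non-phytotoxic solvent, were applied as a directed soil spray preemergence and as postemergence sprays to 2–10 cm, one- to two-leaf seedlings grown in loam soil blended with sand; visual injury, 0–100, assessed ~10 days post-treatment against untreated controls.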

[2] = test system: ducksalad (Heteranthera limosa); assay: Test C flooded paddy test: ducksalad; settings: scale 0 to 100 (0 no effect, 100 complete control)
Outline: (§2)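 Visual ratings from 0 (no effect) to 100 (complete control), made against untreated controls 13 to 15 days after treatment, express plant response. Compounds went directly into paddy water over 2-leaf stage plants in pots flooded to 3 cm.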

[3] = test system: crabgrass, large (large crabgrass, Digitaria sanguinalis); assay: Test A pre-/postemergence: crabgrass, large; settings: for Crabgrass, Large plant response rating: Postemergence; for Plant response rating, Crabgrass, Large: Preemergence
Outline: as §1

[4] = test system: sedge, umbrella (small-flower umbrella sedge, Cyperus difformis); assay: Test C flooded paddy test: sedge, umbrella; settings: scale 0 to 100 (0 no effect, 100 complete control)
Outline: as §2

[5] = test system: barnyardgrass (Echinochloa crus-galli); assay: Test C flooded paddy test: barnyardgrass; settings: scale 0 to 100 (0 no effect, 100 complete control)
Outline: as §2

[6] = test system: corn (Zea mays); assay: Test A pre-/postemergence: corn; settings: for Corn plant response rating: Postemergence; for Plant response rating, Corn: Preemergence
Outline: as §1

[7] = test system: rice (Oryza sativa); assay: Test C flooded paddy test: rice; settings: scale 0 to 100 (0 no effect, 100 complete control)
Outline: as §2

[8] = test system: barnyardgrass (Echinochloa crus-galli); assay: Test A pre-/postemergence: barnyardgrass; settings: for Barnyardgrass plant response rating: Postemergence; for Plant response rating, Barnyardgrass: Preemergence
Outline: as §1

[9] = test system: velvetleaf (Abutilon theophrasti); assay: Test A pre-/postemergence: velvetleaf; settings: for Velvetleaf plant response rating: Postemergence; for Plant response rating, Velvetleaf: Preemergence
Outline: as §1

[10] = test system: wheat (Triticum aestivum); assay: Test A pre-/postemergence: wheat; settings: for Wheat plant response rating: Postemergence; for Plant response rating, Wheat: Preemergence
Outline: as §1

[11] = test system: foxtail, giant (giant foxtail, Setaria faberii); assay: Test A pre-/postemergence: foxtail, giant; settings: for Foxtail, Giant plant response rating: Postemergence; for Plant response rating, Foxtail, Giant: Preemergence
Outline: as §1

[12] = test system: pigweed (Amaranthus retroflexus); assay: Test A pre-/postemergence: pigweed; settings: for Pigweed plant response rating: Postemergence; for Plant response rating, Pigweed: Preemergence
Outline: as §1

[13] = 125 g ai/ha, 0 to 100 scale, 0 is no effect, 100 is complete control
[14] = 500 g ai/ha, visual rating on 0 to 100 scale (0 no effect, 100 complete control), approximately ten days
[15] = 125 g ai/ha, 0 to 100 scale (0 no effect, 100 complete control)
[16] = 500 g ai/ha, 0 to 100 scale, 0 is no effect, 100 is complete control
[17] = Flood (flooded paddy test), 62 g ai/ha, visual rating after 13 to 15 days
[18] = Flood (flooded paddy test), 125 g ai/ha, visual rating after 13 to 15 days
[19] = Flood (flooded paddy test), 250 g ai/ha, visual rating after 13 to 15 days
[20] = 125 g ai/ha, 0 to 100 scale where 0 is no effect and 100 is complete control

Cc1nn(-c2ccc(C(F)(F)F)cn2)nc1Cn1nc(C(F)(F)F)cc1C [Compound 21]
0: Plant response rating, Morningglory [1, 15] | Plant response rating, Morningglory [1, 16] | Plant response rating, Ducksalad [2, 17] | Plant response rating, Ducksalad [2, 18] | Plant response rating, Ducksalad [2, 19] | Plant response rating, Ducksalad ([2]; Flood, 31 g ai/ha) | Plant response rating, Crabgrass, Large [3, 15] | Plant response rating, Sedge, Umbrella [4, 17] | Plant response rating, Sedge, Umbrella [4, 18] | Plant response rating, Sedge, Umbrella [4, 19] | Plant response rating, Sedge, Umbrella ([4]; Flood, 31 g ai/ha) | Plant response rating, Barnyardgrass [5, 17] | Plant response rating, Barnyardgrass [5, 18] | Plant response rating, Barnyardgrass [5, 19] | Plant response rating, Barnyardgrass ([5]; Flood, 31 g ai/ha) | Corn plant response rating [6, 13] | Plant response rating, Corn [6, 15] | Plant response rating, Corn [6, 16] | Plant response rating, Rice [7, 17] | Plant response rating, Rice [7, 18] | Plant response rating, Rice [7, 19] | Plant response rating, Rice ([7]; Flood, 31 g ai/ha) | Barnyardgrass plant response rating [8, 13] | Plant response rating, Barnyardgrass [8, 15] | Plant response rating, Velvetleaf [9, 15] | Plant response rating, Velvetleaf [9, 16] | Wheat plant response rating [10, 13] | Wheat plant response rating [10, 14] | Plant response rating, Wheat [10, 15] | Plant response rating, Wheat [10, 16] | Foxtail, Giant plant response rating [11, 13] | Plant response rating, Foxtail, Giant [11, 15] | Plant response rating, Pigweed [12, 15]
10: Corn plant response rating [6, 14] | Barnyardgrass plant response rating [8, 14] | Plant response rating, Barnyardgrass [8, 16] | Velvetleaf plant response rating [9, 13] | Foxtail, Giant plant response rating [11, 14]
60: Plant response rating, Crabgrass, Large [3, 16] | Pigweed plant response rating [12, 13]
30: Plant response rating, Foxtail, Giant [11, 16]
40: Morningglory plant response rating [1, 14] | Crabgrass, Large plant response rating [3, 14]
50: Plant response rating, Pigweed [12, 16]
80: Pigweed plant response rating [12, 14]
20: Morningglory plant response rating [1, 13] | Crabgrass, Large plant response rating [3, 13] | Velvetleaf plant response rating [9, 14]

CSc1ccc(-n2nc(C)c(C(=O)c3cccc(C(F)(F)F)c3)n2)cc1 [Compound 93]
20: Crabgrass, Large plant response rating [3, 14] | Velvetleaf plant response rating [9, 14] | Pigweed plant response rating [12, 14]
0: Morningglory plant response rating [1, 13] | Plant response rating, Morningglory [1, 20] | Plant response rating, Morningglory [1, 16] | Plant response rating, Ducksalad [2, 18] | Plant response rating, Ducksalad [2, 19] | Plant response rating, Ducksalad ([2]; Flood, 31 g ai/ha) | Plant response rating, Ducksalad ([2]; Flood, 62 g ai/ha) | Plant response rating, Crabgrass, Large [3, 15] | Plant response rating, Crabgrass, Large [3, 16] | Plant response rating, Sedge, Umbrella [4, 18] | Plant response rating, Sedge, Umbrella [4, 19] | Plant response rating, Sedge, Umbrella ([4]; Flood, 31 g ai/ha) | Plant response rating, Sedge, Umbrella ([4]; Flood, 62 g ai/ha) | Plant response rating, Barnyardgrass [5, 18] | Plant response rating, Barnyardgrass [5, 19] | Plant response rating, Barnyardgrass ([5]; Flood, 31 g ai/ha) | Plant response rating, Barnyardgrass ([5]; Flood, 62 g ai/ha) | Plant response rating, Corn [6, 15] | Plant response rating, Corn [6, 16] | Plant response rating, Rice [7, 18] | Plant response rating, Rice [7, 19] | Plant response rating, Rice ([7]; Flood, 31 g ai/ha) | Plant response rating, Rice ([7]; Flood, 62 g ai/ha) | Barnyardgrass plant response rating [8, 13] | Plant response rating, Barnyardgrass [8, 15] | Plant response rating, Barnyardgrass [8, 16] | Plant response rating, Velvetleaf [9, 20] | Plant response rating, Velvetleaf [9, 16] | Wheat plant response rating [10, 13] | Wheat plant response rating [10, 14] | Plant response rating, Wheat [10, 20] | Plant response rating, Wheat [10, 16] | Plant response rating, Foxtail, Giant [11, 20] | Plant response rating, Foxtail, Giant [11, 16] | Plant response rating, Pigweed [12, 20] | Plant response rating, Pigweed [12, 16]
10: Morningglory plant response rating [1, 14] | Crabgrass, Large plant response rating [3, 13] | Corn plant response rating [6, 13] | Corn plant response rating [6, 14] | Barnyardgrass plant response rating [8, 14] | Velvetleaf plant response rating [9, 13] | Foxtail, Giant plant response rating [11, 13] | Foxtail, Giant plant response rating [11, 14] | Pigweed plant response rating [12, 13]
